This data set is described as follows: physchem. To be noted: pH 7.4, LogD, pH 7.4.
On to `Cn1cc(C(=O)Nc2ccc(F)cc2-c2ccc(Cl)c(Cl)c2)c(C(F)F)n1` [Bixafen, bixafen], for which the logD at 1 h stood at 4.09.

On to `O=C(NC1CC2CC1(c1ccc(Cl)cc1)C2)c1cccnc1Cl` (stereo not shown) [Compound 28], for which the logD at 1 h came to 3.58.

The compound `Cn1cc(C(=O)NC2CC3CC2(c2ccc(Cl)c(Cl)c2)C3)c(C(F)F)n1` (stereo not shown) [Compound 29] returned a logD at 1 h of 4.1.

In the case of `Cn1cc(C(=O)NC2CC3CC2(c2cc(F)c(F)c(F)c2)C3)c(C(F)F)n1` (stereo not shown) [Compound 30], the logD at 1 h turned out to be 3.61.

Usually logD stands for lipophilicity at a set pH, counting ionised and neutral species.
